Assay results: PubChem BioAssay (NCI)
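Briefly, cells in 96-well plates were exposed to five compound concentrations for 48 h, and endpoints were estimated by linear interpolation. Abbreviation: GI50, concentration required for 50% inhibition of growth. TGI marks complete inhibition of growth.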

Assays:
Assay in all cases: NCI-60 cell line screen, 48 h
SF-539 CNS = system: SF-539 CNS
SK-MEL-28 melanoma = system: SK-MEL-28 melanoma
CAKI-1 renal = system: CAKI-1 renal
COLO 205 colon = system: COLO 205 colon
ACHN renal = system: ACHN renal
LOX IMVI melanoma = system: LOX IMVI melanoma
HL-60(TB) leukemia = system: HL-60(TB) leukemia
HCT-15 colon = system: HCT-15 colon
SK-MEL-5 melanoma = system: SK-MEL-5 melanoma
HS 578T breast = system: HS 578T breast

Row | SMILES | GI50 (SF-539 CNS) [µM] | TGI (SF-539 CNS) [µM] | GI50 (SK-MEL-28 melanoma) [µM] | TGI (SK-MEL-28 melanoma) [µM] | GI50 (CAKI-1 renal) [µM] | TGI (CAKI-1 renal) [µM] | GI50 (COLO 205 colon) [µM] | TGI (COLO 205 colon) [µM] | GI50 (ACHN renal) [µM] | TGI (ACHN renal) [µM] | GI50 (LOX IMVI melanoma) [µM] | TGI (LOX IMVI melanoma) [µM] | GI50 (HL-60(TB) leukemia) [nM] | TGI (HL-60(TB) leukemia) [µM] | GI50 (HCT-15 colon) [µM] | TGI (HCT-15 colon) [µM] | GI50 (SK-MEL-5 melanoma) [nM] | TGI (SK-MEL-5 melanoma) [µM] | GI50 (HS 578T breast) [µM] | TGI (HS 578T breast) [µM]
1 | O=C(Nc1cccc(C(F)(F)F)c1)c1ccc(NC2=C(Cl)C(=O)N(Cc3ccc(Cl)cc3Cl)C2=O)cc1 | 8.06 | 21.5 | 14.1 | 30.9 | 16.8 | 34.6 | 4.78 | 24.2 | 11.9 | 46.1 | 1.63 | 3.44 | 2720 | 12.4 | 2.31 | 5.66 | 1780 | 3.5 | 2.88 | 8.26
2 | O=C(NC[C@H](O)CN1CCc2ccccc2C1)c1cc(NC2COC2)ncn1 | 5.09 | 45.6 | 31.6 | > 100 | 26.4 | > 100 | 13.4 | > 100 | 25.1 | > 100 | 7.21 | 23.3 | 20300 | 60.5 | 22.7 | > 100 | 11400 | 24.5 | 19.1 | 81.4
3 | CCC(C)(C)c1ccc(OCCCCNC(=O)c2ccc3ccccc3c2O)c(C(C)(C)CC)c1 |  | > 100 |  | > 100 |  | > 100 |  | 34.2 |  | > 100 |  |  |  | > 100 |  | 28.5 |  | 71.4 |  | > 100
4 | O=C(/C=C/c1ccc[nH]1)c1ccc(-n2ccc(C(F)(F)F)n2)cc1 | 2.53 | > 100 | > 100 | > 100 | > 31.6 | > 100 | > 100 | > 100 | > 100 | > 100 | > 100 | > 100 | 307 | 4.12 | > 100 | > 100 | > 100000 | > 100 | > 100 | > 100
5 | CN(C)CC[C@H](CSc1ccccc1)Nc1ccc(S(=O)(=O)NC(=O)c2ccc(N3CCN(Cc4ccccc4-c4ccc(Cl)cc4)CC3)cc2)cc1[N+](=O)[O-] | 36.5 | > 100 | 5.73 | > 100 | 6.71 | > 100 | 2.12 | 4.7 | 4.96 | > 50.6 | 2.77 | > 100 | 350 | 4.56 | 5.09 | > 100 | 1560 | 3.23 | 6.87 | > 100
6 | CCOc1ccc(/C=C2\N=C(c3ccc([N+](=O)[O-])cc3)OC2=O)cc1 |  | > 100 |  | > 100 |  | > 100 |  | > 100 |  | > 100 |  | > 100 |  | > 100 |  | > 100 |  | > 100 |  | > 100
7 | CC(C)(/C=C(\C#N)C(=O)N1CCC[C@@H](n2nc(-c3ccc(Oc4ccccc4)cc3F)c3c(N)ncnc32)C1)N1CCN(C2COC2)CC1 | 5.95 | 19 | 9.71 | 22 | 6.39 | 18.8 | 5.71 | 24.3 | 4.53 | 17.1 | 3.37 | 15.2 | 5280 | 32.5 | 6.11 | 21 | 3960 | 13.9 | 4.67 | 23.8
8 | O=C(Cc1ccc(F)c(Cl)c1)Nc1cc(C2(C(F)(F)F)CC2)nn1CC1CCCCC1 | 4.86 | > 15 | 4.82 | > 15 | 2.93 | 8.79 | 2.59 | 5.41 | 4.22 | 13.9 | 4.58 | > 15 | 3270 | 7.79 | 3.87 | > 15 | 2610 | 4.88 | 2.13 | 9.45
9 | CCOC(=O)Nc1cc2c(c(N)n1)N=C(c1ccccc1)CO2 | 0.195 | 0.789 | 15.6 | 77.7 | 0.102 | 7.62 | 0.102 | 0.885 | 0.986 | 31.7 | 0.368 | > 100 | 30.3 |  | 0.0894 | > 100 | 174 | 5.9 | 0.388 | > 69.4
